In US20030120049A1, “Non-selective cation channel” (priority 2000, published 2003):

Experiments:
[1] = molecular target: T1, OTRPC4 (Mus musculus, UniProt Q9EPK8); experiment: FURA-2 measurement of intracellular Ca2+ with luminiscence spectrometer in OTRPC4 transfected HEK293 cells; format: cell-based, murine; details: 100 μM; osmolarity lowered from 320 mosmol/l to 220 mosmol/l
T1 construct: expressed in transfected cells; host or cells: HEK293 (transient, FuGENE 6)
Procedure: For testing the function of OTRPC4 transfected HEK293 cells with a further method, intracellular Ca^2+ concentration was measured with FURA-2. The experiments were conducted with luminiscence spectrometer (LS 50 B, Perkin Elmer).
For determining the extent of calcium influx into the cells, maximal intracellular Ca^2+ was induced by lonomycin. This [Ca^2+]i could be reverted to its original value by EGTA. Influx of extracellular calcium via OTRPC4 was demostrated by showing change of the intracellular Ca^2+ concentration by lowering osmolarity by 100 mosmol/l (from 320 mosmol/l to 220 mosmol/l). The hypotonic solution led to an increase in [Ca^2+]i which could be quenched by EGTA. Half of the [Ca^2+] increasing effect of hypotonic solution could be blocked by addition of LOE908 (Embaco A, Romanin C, Birke F W, Kukovetz W R, Groschner K: Inhibition of a store-operated Ca2+ entry pathway in human endothelial cells by the isoquinoline derivative LOE 908. British Journal of Pharmacology (1996) 119 702-706) (100 μM) (FIG. 10).

[2] = system: chloride channels activated by a change in volume; experiment: Perforated patch measurement of currents triggered by hypotonic extracellular solution in control cells; format: cell-based; details: 50 μM
Procedure: (§1) Because of the rapid “run-down” of the ion fluxes, the other experiments were carried out using the so-called perforated patch method. Measured in standard extracellular solution, the current-voltage curve, measured by applying voltage ramps, show an outwardly rectifying form with a reverse potential of about 0 mV (FIG. 6). When the Na^+- and Ca^2+-ions were removed from the extracellular solution, the inward flux disappeared and the reverse potential moved into the negative area. The average ion fluxes at −100 and +100 mV measured with the aid of ramp protocols were −12.8±1.1 and +32.2±2.7 pA/pF, respectively (n=17, Cm=9.6±5.5 pF).
(§2) Replacing the extracellular standard solution with a solution which contained 100 mM NaCl and 100 mM mannitol (osmolarity: 320 mosmol/l) shifted Er to a more negative potential (−11.2±1.6 mV, n=14), as might be expected from a current carried by cations when the extracellular sodium concentration is reduced (see FIG. 6). Moreover, the inwardly and outwardly directed current components were reduced (−7.0±0.8 and 22.7±2.7 pA/pF at −100 and 100 mV, respectively) (see FIG. 6). The use of a hypoosmolar solution (215 mosmol/l) led, after a delay of a few seconds (about 18 seconds on average) to an increase in both the inwardly and outwardly directed currents (FIG. 7). This increase reached its maximum after 50 seconds, on average. […]

[3] = molecular target: T1, OTRPC4; experiment: Perforated patch measurement of cation currents triggered by hypotonic solution in OTRPC4-expressing cells; format: cell-based, murine; details: 50 μM
Procedure: as §1, §2

[4] = molecular target: T1, OTRPC4; experiment: FURA-2 single cell measurement of intracellular calcium in HEK293 cells transiently expressing OTRPC4-GFP; format: cell-based, murine; details: for effect on cells which expressed OTRPC4: 10 μM
Text: The cDNA of OTRPC4 was cloned into a eukaryotic expression plasmid containing, at the C-terminal end, a green fluorescent protein (GFP) fusion section (pEGFP-N1). This plasmid was used for the subsequent expression studies. It can be inferred from the nucleotide sequence that the OTRPC4 protein may consist of 871 amino acids, for example, and contains 6 possible transmembranal segments with a sequence between segments 5 and 6 which possibly codes for a pore region of a channel (FIG. 1a). After transient transfection (which was carried out using the FuGENE 6 transfection reagent) of the expression plasmid coding for the OTRPC4-GFP fusion protein in HEK293 cells, dots of fluorescence could be detected in the plasma membrane 24-36 hours later. […] For the following experiments, HEK293 cells were transiently transfected with the above-mentioned expression plasmid containing OTRPC4 and compared, after 24-36 hours, with untransfected control cells.
The influence of extracellular osmolarity on the channel activity of OTRPC4 was investigated. After reducing the osmolarity of the extracellular solution, there was a long, transient and reversible increase in the [Ca^2+]i in the OTRPC4 expressing cells but not in the control cells (FIG. 5). Increasing the osmolarity of the extracellular solution, on the other hand, reduced the [Ca^2+]i (cf. the small diagram in FIG. 4). A significant change in the [Ca^2+]i was observed even when the extracellular solution was changed by 30 mosmol/l. The changes in [Ca^2+]i triggered by changing the osmolarity of the extracellular solution occurred rapidly and reached a peak after about 30 seconds, but varied from cell to cell (see FIG. 4). After returning to the normoosmolar solution, [Ca^2+]i rapidly returned to its base value. In order to distinguish between an influx of calcium from the extracellular medium and a release of calcium from intracellular calcium stores, calcium was replaced by EGTA in the extracellular medium while the cells were exposed to a hypotonic medium. Under these conditions, the FURA-2 signal returned to the base value (see FIG. 4).
The members of the STRPC subfamily of the TRPC channels are activated by signals produced by the activation of the phospholipase C-β (PCL-β) (6-15).
The addition of capsaicin (10 μM) and resiniferatoxin (10 μM) as well as a brief increase in the temperature to 65° C. had no effect on cells which expressed OTRPC4.

T1 sequence (Q9EPK8 whole entry): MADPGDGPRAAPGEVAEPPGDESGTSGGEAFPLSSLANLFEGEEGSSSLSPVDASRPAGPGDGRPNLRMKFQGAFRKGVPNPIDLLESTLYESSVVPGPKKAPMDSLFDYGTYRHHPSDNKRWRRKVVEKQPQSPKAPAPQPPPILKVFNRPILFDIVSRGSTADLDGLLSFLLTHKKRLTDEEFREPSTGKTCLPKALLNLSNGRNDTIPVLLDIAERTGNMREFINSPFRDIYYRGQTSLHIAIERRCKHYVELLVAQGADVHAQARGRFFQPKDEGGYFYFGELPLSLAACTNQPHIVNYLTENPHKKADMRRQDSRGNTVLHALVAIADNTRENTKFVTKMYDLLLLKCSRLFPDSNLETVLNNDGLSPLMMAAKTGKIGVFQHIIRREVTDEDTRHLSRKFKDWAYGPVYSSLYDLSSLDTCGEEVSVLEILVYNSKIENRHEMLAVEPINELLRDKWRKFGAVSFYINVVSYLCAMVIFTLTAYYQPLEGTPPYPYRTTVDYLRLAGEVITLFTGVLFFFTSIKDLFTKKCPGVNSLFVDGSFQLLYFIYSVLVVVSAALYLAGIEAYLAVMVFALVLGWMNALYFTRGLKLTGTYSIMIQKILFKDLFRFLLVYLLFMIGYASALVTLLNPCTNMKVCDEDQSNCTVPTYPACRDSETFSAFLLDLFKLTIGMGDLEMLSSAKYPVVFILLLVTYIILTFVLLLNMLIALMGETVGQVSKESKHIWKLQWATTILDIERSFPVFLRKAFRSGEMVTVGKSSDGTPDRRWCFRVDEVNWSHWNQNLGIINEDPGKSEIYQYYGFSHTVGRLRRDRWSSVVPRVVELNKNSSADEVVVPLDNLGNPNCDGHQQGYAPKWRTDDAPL

Structure (SMILES): COc1cc2c(cc1OC)C(C(C(=O)N(CCc1ccc(OC)c(OC)c1OC)CCc1ccc(OC)c(OC)c1OC)c1ccccc1)=NCC2 (centres unmarked) [LOE908]
- block of the [Ca2+] increasing effect of hypotonic solution [1]: Half

Structure (SMILES): O=C(O)c1cc([N+](=O)[O-])ccc1NCCCc1ccccc1 [NPPB]
- activation of currents triggered by hypotonic extracellular solution in control cells [2]: inhibited completely
- cation currents in OTRPC4-expressing cells triggered by hypotonic solution [3]: unaffected

Structure (SMILES): [Cl][Gd]([Cl])[Cl] [GdCl3]
- effect on the influx of calcium into OTRPC4-expression cells triggered by hypoosmolarity ([4]; 1 mM, HEK293 cells expressing OTRPC4): no effect

Structure (SMILES): C=C(C)[C@]12C[C@@H](C)[C@@]34O[C@](Cc5ccccc5)(O[C@@H]1[C@@H]3C=C(COC(=O)Cc1ccc(O)c(OC)c1)C[C@]1(O)C(=O)C(C)=C[C@@H]41)O2 [resiniferatoxin]
- effect on cells which expressed OTRPC4 [4]: no effect

Structure (SMILES): COc1cc(CNC(=O)CCCC/C=C/C(C)C)ccc1O [capsaicin]
- effect on cells which expressed OTRPC4 [4]: no effect

Structure (SMILES): C/C=C(/C)C(=O)O[C@H]1C(C)=C2[C@H]([C@@H]1OC(=O)CCCCCCC)[C@@](C)(OC(C)=O)C[C@H](OC(=O)CCC)[C@@]1(O)[C@H]2OC(=O)[C@@]1(C)O [thapsigargin]
- amplitude of the FURA-2 signal triggered by the hypotonic medium after emptying the intracellular stores ([4]; 5 μM, added previously, OTRPC4-expressing cells): did not alter the amplitude

Structure (SMILES): [Cl][La]([Cl])[Cl] [LaCl3]
- inhibition of the influx of calcium into OTRPC4-expression cells triggered by hypoosmolarity ([4]; 100 μM, HEK293 cells expressing OTRPC4): about 50%
